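Grown in 96-well plates, cells were treated for 48 hours with each compound at five concentrations. Insufficient inhibition: endpoint recorded as highest concentration tested. GI50: concentration for 50% inhibition of growth.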 Activity calls are given as the source filed them. Cut-off read from the data, not from the text of the source: active = GI50 up to about 1.1 µM and inactive = higher.
Experiments:
Assay in all cases: NCI-60 cell line screen, 48 h
786-0 = test system: 786-0
A549 = test system: A549
ACHN = test system: ACHN
CAKI-1 = test system: CAKI-1
CCRF-CEM = test system: CCRF-CEM
HL-60 = test system: HL-60
IGROV-1 = test system: IGROV-1
K562 = test system: K562
LOX IMVI = test system: LOX IMVI
MDA-N = test system: MDA-N
MOLT-4 = test system: MOLT-4
Malme-3M = test system: Malme-3M
OVCAR-4 = test system: OVCAR-4
RXF 393 = test system: RXF 393
SF-539 = test system: SF-539
SK-MEL-28 = test system: SK-MEL-28
SN12C = test system: SN12C
T47D = test system: T47D
UACC-257 = test system: UACC-257

Measured: GI50

Cc1c2cccc-2c(OCCO)cc2c1[nH]c1ccccc12
inactive: 786-0 2.24 µM | A549 3.15 µM | ACHN 1.64 µM | CAKI-1 1.59 µM | CCRF-CEM 4.75 µM | HL-60 2.16 µM | IGROV-1 1.88 µM | K562 3.1 µM | LOX IMVI 1.95 µM | MDA-N 2.76 µM | MOLT-4 2.99 µM | Malme-3M 1.73 µM | OVCAR-4 3.43 µM | RXF 393 2.37 µM | SF-539 1.74 µM | SK-MEL-28 4.49 µM | SN12C 2.09 µM | T47D 3.24 µM | UACC-257 3.15 µM

COP(=O)(OC)/C(=C/c1c[nH]c2ccccc12)C(=O)O
inactive: 786-0 > 100 µM | A549 > 100 µM | ACHN > 100 µM | CAKI-1 > 100 µM | CCRF-CEM > 100 µM | HL-60 > 100 µM | IGROV-1 > 100 µM | K562 > 100 µM | LOX IMVI > 100 µM | MDA-N > 100 µM | MOLT-4 > 100 µM | Malme-3M > 100 µM | OVCAR-4 > 100 µM | RXF 393 > 100 µM | SF-539 > 100 µM | SK-MEL-28 > 100 µM | SN12C > 100 µM | T47D > 100 µM

COc1cc(/C=N/c2nc3cc4sc(/N=C/c5cc(OC)c(OC)c(OC)c5)nc4cc3s2)cc(OC)c1OC
inactive: 786-0 49.2 µM | A549 40.5 µM | ACHN > 100 µM | CAKI-1 > 100 µM | HL-60 57.1 µM | IGROV-1 > 100 µM | K562 50.1 µM | LOX IMVI 42.9 µM | MDA-N 27 µM | MOLT-4 31.3 µM | Malme-3M > 100 µM | OVCAR-4 > 100 µM | RXF 393 > 100 µM | SF-539 17.9 µM | SK-MEL-28 21.7 µM | SN12C 43 µM | T47D 51.1 µM | UACC-257 73.6 µM

C[C@@]1(c2ccccc2)O[C@@H]2C[C@H]3[C@@H]4CCC5=CC(=O)C=C[C@]5(C)[C@@]4(F)[C@@H](O)C[C@]3(C)[C@]2(C(=O)CO)O1 [AMCINAFIDE]
inactive: 786-0 16.3 µM | A549 11.8 µM | ACHN 18.1 µM | CAKI-1 23.3 µM | HL-60 18.8 µM | IGROV-1 17.7 µM | K562 12.5 µM | LOX IMVI 23.8 µM | MDA-N 17 µM | Malme-3M 13.8 µM | OVCAR-4 15 µM | RXF 393 20.1 µM | SK-MEL-28 16.3 µM | SN12C 12.9 µM | T47D 20.2 µM | UACC-257 17.6 µM

CSc1nc(-c2ccccc2)nc(C(C#N)C#N)n1
inactive: 786-0 > 100 µM | A549 > 100 µM | ACHN > 100 µM | CAKI-1 > 100 µM | CCRF-CEM > 100 µM | HL-60 > 100 µM | IGROV-1 > 100 µM | LOX IMVI > 100 µM | MDA-N > 100 µM | MOLT-4 > 100 µM | Malme-3M > 100 µM | OVCAR-4 > 100 µM | RXF 393 > 100 µM | SF-539 > 100 µM | SK-MEL-28 > 100 µM | SN12C > 100 µM | T47D > 100 µM | UACC-257 > 100 µM

COC(=O)[C@]1(c2cc3ccccc3n2S(=O)(=O)c2ccccc2)CC2CCC1NC2 (some centres not stated)
inactive: 786-0 14.3 µM | A549 12.6 µM | ACHN 21.7 µM | CAKI-1 15.5 µM | CCRF-CEM 16.1 µM | HL-60 2.85 µM | IGROV-1 14 µM | K562 10.4 µM | LOX IMVI 15.6 µM | MDA-N 14.7 µM | Malme-3M 14.9 µM | OVCAR-4 16.4 µM | RXF 393 12.2 µM | SF-539 16.4 µM | SK-MEL-28 16.8 µM | SN12C 15.7 µM | T47D 12.2 µM | UACC-257 15.8 µM

Cc1ccc(Nc2nc(C)c(C(=O)CC(=O)C(=O)Nc3ccc(Cl)cc3)s2)cc1
inactive: 786-0 > 100 µM | A549 > 100 µM | ACHN > 100 µM | CAKI-1 > 100 µM | CCRF-CEM > 100 µM | HL-60 > 100 µM | IGROV-1 > 100 µM | K562 > 100 µM | LOX IMVI > 100 µM | MDA-N > 100 µM | MOLT-4 > 100 µM | Malme-3M 76.6 µM | RXF 393 > 100 µM | SF-539 > 100 µM | SK-MEL-28 > 100 µM | SN12C > 100 µM | T47D > 100 µM | UACC-257 > 100 µM

CC1(C)OC2C(O)C(CO)OC2(C(F)F)O1 (configuration not stated)
inactive: 786-0 > 100 µM | A549 > 100 µM | CAKI-1 > 100 µM | CCRF-CEM > 100 µM | HL-60 > 100 µM | IGROV-1 > 100 µM | K562 > 100 µM | LOX IMVI > 100 µM | MDA-N > 100 µM | MOLT-4 > 100 µM | Malme-3M > 100 µM | OVCAR-4 > 100 µM | RXF 393 > 100 µM | SF-539 > 100 µM | SK-MEL-28 > 100 µM | SN12C > 100 µM | T47D > 100 µM | UACC-257 > 100 µM

CNC(=S)NN=C1NCCCCN1
inactive: 786-0 > 100 µM | A549 > 100 µM | ACHN > 100 µM | CAKI-1 29.2 µM | CCRF-CEM > 100 µM | HL-60 > 100 µM | IGROV-1 > 100 µM | K562 > 100 µM | LOX IMVI > 100 µM | MDA-N > 100 µM | MOLT-4 > 100 µM | Malme-3M > 100 µM | OVCAR-4 > 100 µM | RXF 393 > 100 µM | SF-539 > 100 µM | SK-MEL-28 > 100 µM | T47D > 100 µM | UACC-257 > 100 µM

Cc1cc(C)nc(NC(=S)Nc2ccccc2Cl)c1
inactive: 786-0 > 100 µM | A549 > 100 µM | CAKI-1 > 100 µM | CCRF-CEM > 100 µM | HL-60 > 100 µM | IGROV-1 > 100 µM | K562 > 100 µM | LOX IMVI > 100 µM | MDA-N > 100 µM | MOLT-4 > 100 µM | Malme-3M > 100 µM | OVCAR-4 > 100 µM | RXF 393 > 100 µM | SF-539 > 100 µM | SK-MEL-28 > 100 µM | SN12C > 100 µM | T47D > 100 µM | UACC-257 > 100 µM

CC(=O)Nc1ccc(C(O)/C(=N/N)c2nc3ccc(Cl)cc3nc2O)cc1 (configuration not stated)
inactive: 786-0 > 100 µM | A549 > 100 µM | ACHN > 100 µM | CAKI-1 > 100 µM | CCRF-CEM > 100 µM | HL-60 > 100 µM | IGROV-1 > 100 µM | LOX IMVI > 100 µM | MDA-N > 100 µM | MOLT-4 > 100 µM | Malme-3M > 100 µM | OVCAR-4 > 100 µM | RXF 393 > 100 µM | SF-539 > 100 µM | SK-MEL-28 > 100 µM | SN12C > 100 µM | T47D > 100 µM | UACC-257 > 100 µM
